# In patent US20130096305A1, “[…] […]” (priority 2010, published 2013):
# pEC50: −log10 of the molar value.
# System: HIV-1 LAI envelope single-round infectious reporter virus
# Experiment: Single-round infectious luciferase reporter virus infection of MT2 cells
# Format: cell-based
# Details: Human immunodeficiency virus 1, MT2, 72 h
# Excerpt: • Virus production—Human embryonic Kidney cell line, 293T (HEK 293T), was propagated in Dulbecco's Modified Eagle Medium (Invitrogen, Carlsbad, Calif.) containing 10% fetal Bovine serum (FBS, Sigma, St. Louis, Mo.). The human T-cell leukemia cell MT2 (AIDS Research and Reference Reagent Program, Cat. 237) was propagated in RPMI 1640 (Invitrogen, Carlsbad, Calif.) containing 10% fetal bovine serum (FBS, Hyclone, Logan, Utah) • Virus infection—Single-round infectious reporter virus was produced by co-transfecting HEK 293T cells with plasmide expressing the HIV-1 LAI envelope along with a plasmid containing an HIV-1 LAI proviral cDNA with the envelope gene replaced by a firefly luciferase reporter gene (Chen et al, Ref 41). Transfections were performed using lipofectAMINE PLUS reagent as described by the manufacturer (Invitrogen, Carlsbad, Calif.).
# • 1. MT2 cells were plated in black, 384 well plates at a cell density of 5×10^3 cells per well in 25 μl RPMI 1640 containing 10% FBS. • 2. Compound (diluted in dimethylsulfoxide and growth medium) was added to cells at 12.5 μl/well, so that the final assay concentration would be ≦50 nM. • 3. 12.5 μl of single-round infectious reporter virus in Dulbecco's Modified Eagle Medium was added to the plated cells and compound at an approximate multiplicity of infection (MOI) of 0.01, resulting in a final volume of 50 μl per well. • 4. Virus-infected cells were incubated at 37 degrees Celsius, in a CO2 incubator, and harvested 72 h after infection. • 5. Viral infection was monitored by measuring luciferase expression in the infected cells using a luciferase reporter gene assay kit (Steady-Glo, Promega, Madison, Wis.) as described by the manufacturer. Luciferase activity was then quantified by measuring luminescence using an EnVision Multilabel Plate Readers (PerkinElmer, Waltham, Mass.). • 6. The percent inhibition for each compound was calculated by quantifying the level of luciferase expression in cells infected in the presence of each compound as a percentage of that observed for cells infected in the absence of compound and subtracting such a determined value from 100. • 7. An EC50 provides a method for comparing the antiviral potency of the compounds of this disclosure. The effective concentration for fifty percent inhibition (EC50) was calculated with the Microsoft Excel Xlfit curve fitting software. For each compound, curves were generated from percent inhibition calculated at 10 different concentrations by using a four paramenter logistic model (model 205).
row,Structure (SMILES),pEC50
1,[2H]C1([2H])N(C(=O)C(=O)c2c[nH]c3c(-n4cnc(C)n4)ncc(OC)c23)C([2H])([2H])C([2H])([2H])N(C(=O)c2ccccc2)C1([2H])[2H] [Compound 0012],10.15
2,[2H]c1c([2H])c([2H])c(C(=O)N2CCN(C(=O)C(=O)c3c[nH]c4c(OC)ncc(OC)c34)CC2)c([2H])c1[2H] [Compound 0002],9.20
3,[2H]c1c([2H])c([2H])c(C(=O)N2C([2H])([2H])C([2H])([2H])N(C(=O)C(=O)c3c[nH]c4c(-n5ccnn5)ncc(OC)c34)C([2H])([2H])C2([2H])[2H])c([2H])c1[2H] [Compound 0004],10.00
4,[2H]c1c([2H])c([2H])c(C(=O)N2C([2H])([2H])C([2H])([2H])N(C(=O)C(=O)c3c[nH]c4c(-n5ccnn5)ncc(F)c34)C([2H])([2H])C2([2H])[2H])c([2H])c1[2H] [Compound 0007],9.96
5,[2H]c1c([2H])c([2H])c(C(=O)N2CCN(C(=O)C(=O)c3c[nH]c4c(-n5ccnn5)ncc(OC)c34)CC2)c([2H])c1[2H] [Compound 0005],9.62
6,[2H]c1c([2H])c([2H])c(C(=O)N2CCN(C(=O)C(=O)c3c[nH]c4c(-n5ccnn5)ncc(F)c34)CC2)c([2H])c1[2H] [Compound 0008],10.00
7,[2H]C1([2H])N(C(=O)C(=O)c2c[nH]c3c(OC)ncc(OC)c23)C([2H])([2H])C([2H])([2H])N(C(=O)c2ccccc2)C1([2H])[2H] [Compound 0003],9.26
8,[2H]c1c([2H])c([2H])c(C(=O)N2CCN(C(=O)C(=O)c3c[nH]c4c(-n5cnc(C)n5)ncc(OC)c34)CC2)c([2H])c1[2H] [Compound 0011],9.92
9,[2H]c1c([2H])c([2H])c(C(=O)N2C([2H])([2H])C([2H])([2H])N(C(=O)C(=O)c3c[nH]c4c(OC)ncc(OC)c34)C([2H])([2H])C2([2H])[2H])c([2H])c1[2H] [Compound 0001],9.17
10,[2H]C1([2H])N(C(=O)C(=O)c2c[nH]c3c(-n4ccnn4)ncc(OC)c23)C([2H])([2H])C([2H])([2H])N(C(=O)c2ccccc2)C1([2H])[2H] [Compound 0006],10.10
11,[2H]C1([2H])N(C(=O)C(=O)c2c[nH]c3c(-n4ccnn4)ncc(F)c23)C([2H])([2H])C([2H])([2H])N(C(=O)c2ccccc2)C1([2H])[2H] [Compound 0009],9.85
12,[2H]c1c([2H])c([2H])c(C(=O)N2C([2H])([2H])C([2H])([2H])N(C(=O)C(=O)c3c[nH]c4c(-n5cnc(C)n5)ncc(OC)c34)C([2H])([2H])C2([2H])[2H])c([2H])c1[2H] [Compound 0010],10.22
